Experimental data reported in patent publication US20050075398A1, “Neuroprotectin D1 protects against cellular apoptosis, stroke damage, alzheimer's disease and retinal diseases” (priority 2003, published 2005).

Tests used:
[1] = system: infarcted volume (stroke volume); assay: Stroke volume by TTC staining after MCA-O; format: in vivo, mouse
Method: Assessment of stroke volume. Forty-eight hours after MCA-O, mice were killed, and brains were dissected and immersed in ice-cold saline. The dissected brains were embedded in agar blocks and sectioned into coronal slices 1 mm thick by a vibratome (Vibratome Co. St. Louis, Mo.). Sections were incubated at room temperature in a 3% buffered solution of 2,3,5,-triphenyltetrazolium chloride (TTC). Once color developed (10 to 15 min), sections were fixed in 10% buffered formalin, and kept at 4° C. until images were recorded by a camera (Cool-snap, Nikon) mounted to a dissecting microscope. In the digital images, total brain area and stroke areas were analyzed and calculated by Adobe Photoshop software. Serial sections were made for all animals. (Digital images not included).
To test for in vivo bioactivity of 10,17S-docosatriene (NPD1) in brain during focal ischemic stroke, Alzet mini-pumps were implanted into the third ventricle to deliver the lipid messenger over the 48 h reperfusion following 1 h of MCA-O. Brain coronal sections were incubated at room temperature in 3% buffered TTC (triphenyltetrazolium chloride) for approximately 10-15 min. The docosanoid 10,17S-docosatriene (NPD1) was infused (1 μg over 48 h by implanted Alzet mini-pumps). In photos, colorless areas indicated mitochondrial damage reflecting the inability to metabolize TTC. […]

[2] = system: NF-κB-DNA binding activity; assay: EMSA of NF-κB in hippocampus after MCA-O; format: in vivo, mouse; settings: ipsilateral hippocampus; 1 h MCA-O, 2 h reperfusion; infused into third ventricle 3 h at 0.25 μl/h (NPD1 0.16 μg/ml)
Method: (§1) Electrophoretic mobility-shift assay (EMSA) of human AP1, HIF-1α, NF-κBp50/p65, and STAT-1α. Nuclear protein extracts (NPXTs) were prepared from one to three 3.5 cm-diameter wells of HN cells and quantitated. NPXTs (5 μg) derived from HN cells were incubated with[γ-^32P]-ATP (˜3000 Ci/mmol)-end-labeled AP1, HIF-1α, NF-κκBp50/p65, or STAT-1α consensus and mutant oligonucleotides in 5-μl volumes, reacted for 30 min on ice, analyzed on 5% or 10% acrylamide/90 mM Tris-borate pH 8.4, 1 mM EDTA (TBE) gels, dried onto 2-mm Whatman filter paper at 80° C. for 2 h, and phosphorimaged using a Typhoon Variable Mode Imager (Amersham Pharmacia Biotech, Piscataway, N.J. ).
(§2) FIGS. 7A, 7B, and 7C show mouse hippocampus after 1 h MCA-O was followed by 2 h reperfusion, where either vehicle, DHA, or 10,17S-docosatriene (NPD1) (0.16 μg/ml) was infused into the third ventricle for 3 h at 0.25 μl/h. […] NF-κB was increased over two fold in the ipsilateral hippocampus after MCA-O, and the infusion of either DHA or 10,17S-docosatriene (NPD1) inhibited ischemia-reperfusion-induced NF-κB activation by 28% and 48%, respectively (FIG. 7A).

STAT-1-DNA binding = assay: EMSA of STAT-1 in hippocampus after MCA-O; format: in vivo, mouse; settings: 1 h MCA-O, 2 h reperfusion, NPD1 0.16 μg/ml infused 3 h
Method: as §1, §2

COX-1 expression = assay: COX-1 mRNA abundance in ipsilateral hippocampus after MCA-O; format: in vivo, mouse; settings: 1 h MCA-O, 2 h reperfusion, NPD1 0.16 μg/ml infused
Method: COX-2 RNA abundance in hippocampus and HN cells. Abundance of human-specific COX-1 and COX-2 RNA message was assayed using RT-PCR as described in Bazan, N. G., and Lukiw, W. J. (2002) J. Biol. Chem. 277, 30359-30367.
To determine COX-1 and COX-2 expression, mRNA abundance in the ipsilateral hippocampus was measured. […] A 3-fold increase of COX-2 was seen due to MCA-O reperfusion (FIG. 7C). The infusion of the precursor DHA as well as its product 10,17S-docosatriene (NPD1) inhibited COX-2 expression by 14% and 52%, respectively.

Bcl-2 gene expression = assay: HGU133 GeneChip DNA array in HN cells: Bcl-2; format: cell-based, human; settings: Aβ42 25 μM, DHA 50 nM or NPD1 50 nM, 18 h, nsc = no significant change
TNFα gene expression = assay: HGU133 GeneChip DNA array in HN cells: TNFα; format: cell-based, human; settings: Aβ42 25 μM, DHA 50 nM or NPD1 50 nM, 18 h, nsc = no significant change
caspase-3 [3] = assay: Caspase-3 cleavage analysis by Western blot (PARP); format: cell-based, human; settings: NPD1 50 nM added with TNFα/H2O2, 6-8 h; TNFα/H2O2 alone 80.8%
Method: Caspase-3 cleavage analysis: Caspase-3 cleavage was evaluated by Western-blot analysis after using PARP as substrate. Briefly, 20 μg equivalent of each cell extract was electrophoresed on an 8-16% gel (Promega, Madison, Wis.) for 2 h at 125 volts. The proteins were transferred onto nitrocellulose membranes as before, and probed with PARP antibody (Santa Cruz Biotechnology, Santa Cruz, Calif.). The degradation of PARP was evaluated using ECL kit.
Effector caspase-3, downstream of pro- and anti-apoptotic proteins, is activated as a consequence of mitochondrial cytochrome c release into the cytoplasm and activation of the apoptosome. ARPE-19 cells were serum-starved for 1 h prior to a 6- to 8-h treatment with TNF-α (10 ng)+H2O2 (either 400 or 800 μM as indicated) in the presence or absence of NPD1 (50 nM). In FIG. 15A, caspase-3 cleavage was detected by Western-blot analysis using PARP (Santa Cruz Biotech.) as antibody. […] In ARPE-19 cells, caspase-3-induced cleavage using endogenous substrate occurred when TNFα/H2O2-triggered oxidative stress was present, as indicated by increased PARP accumulation (an 80.8% increase compared to the control; FIG. 15A).

caspase-3 [4] = assay: Caspase-3 cleavage in ARPE-19 cells stably transfected with lentivirus DEVD construct; settings: 50 nM
Text: The values shown are the average of triplicate samples in three independent experiments.

## CC/C=C\C[C@H](O)\C=C/C=C/C=C/[C@H](O)C/C=C\C/C=C\CCC(=O)O [NPD1, 10,17S-docosatriene]
[1]; 1 μg over 48 h at 250 nl/h intracerebroventricular, after 48 h
  reduction of stroke volume: 50%
[1]; 1 μg over 48 h by Alzet mini-pump into third ventricle, 1 h MCA-O, 48 h reperfusion, vehicle about 30%
  focal infarcted volume, percentage of total volume: less than 15%
[2]
  inhibition of ischemia-reperfusion-induced NF-κB activation: 48%
STAT-1-DNA binding
  effect on STAT-1-DNA binding: small effect
COX-1 expression
  decrease of COX-1 expression (mRNA): 19%
Bcl-2 gene expression
  Bcl-2 gene expression, fold change over untreated controls: +3.3 fold
TNFα gene expression
  TNFα gene expression, fold change over untreated controls: nsc
caspase-3 [3]
  PARP accumulation (caspase-3 activation), increase compared to the control: 18.3%
caspase-3 [4]; 400 μM H2O2 with TNFα
  inhibition of caspase-3 activation: 60%
caspase-3 [4]; 800 μM H2O2 with TNFα
  inhibition of caspase-3 activation: 50%
